Test results published in patent publication US8481458B2, “Adjuvant for pesticides” (priority 2002, dated 2013).

Tests used:
[1] = tested on: Alternaria solani; assay: Fungicide for control of Early Blight on tomatoes; format: in vivo; settings: tomato plants innoculated with the fungi; ratings after one week
Source text: The tomato plants were innoculated with the fungi. The ratings were made after one week on the percent leaves infected with Alternaria and also the number with bad damage—necrosis.

[2] = tested on: Xanthomonas campestris; assay: Bactericide on bacterial leaf spot on tomatoes; format: in vivo; settings: tomato plants innoculated with the bacteria; ratings after two weeks
Source text: The tomato plants were innoculated with the bacteria. […] The ratings were made after two weeks on the percent leaves infected.

[3] = tested on: fireblight on Southern Crepe Myrtle; assay: Streptomycin for control of fireblight on Southern Crepe Myrtle; settings: infected plants sprayed until wet; ratings after two days
[4] = tested on: Eastern Tent caterpillar; assay: Ingestion insecticide sprayed on the tent; format: in vivo; settings: evaluated 1 day after application
Description: This test involved the evaluation of an ingestion insecticide on the Eastern Tent caterpillar. The insecticide was mixed in a tank at the shown rate and sprayed on the tent, and the evaluation was performed after 1 day following application.

[5] = tested on: potato vines; assay: Dessication of potato vines before harvest (speed); format: in vivo; settings: for Defol %: at the time printed in column Hour; for Hour: time at which the printed Defol % was seen
Source text: This example was used to how various permeabilizers are able to improve the speed in which various active components are able to obtain their desired effects on treated plants. In this example, a combination of oxalic acid and citric acid (Adjuvant 1) was used in combination with the harvest aid chemicals paraquat and diquat for the dessication of potato vines before harvest and compared to the commercial rates paraquat and diquat.

[6] = tested on: cotton; assay: Cotton defoliation with oxalic acid, EDTA, citric acid as adjuvants, field plots; format: in vivo; settings: Day 7 after spraying, test size field plots
Description: Oxalic acid (Adj II), EDTA (Adj III), and citric acid (Adj IV) were used as an adjuvants with harvest aid chemicals and compared to the commercial products ethephon and ethephon plus cyclanilide. The comparison was for defoliation only at 7 days after spraying on cotton. The tests were conducted on test size field plots, at dosages of 1 pound or 0.5 pounds per acre (#/ac).

## N#Cc1c(Cl)c(Cl)c(Cl)c(C#N)c1Cl [Chlorothalonil 2.5 pt/ac, chlorothalonil]
[1]
  Infected Leaflets: 60%
  Infected Leaves: 42%
  Leaflets with >50% Necrosis: 42%

## [Cu+2].[OH-].[OH-] [Copper 2#/acre, copper hydroxide]
[2]
  Percent Leaves Infected: 63%

## [H]/N=C(/N)N[C@H]1[C@H](O)[C@@H](O)[C@H](O[C@@H]2O[C@@H](C)[C@](O)(C=O)[C@H]2O[C@@H]2O[C@@H](CO)[C@H](O)[C@@H](O)[C@@H]2NC)[C@@H](N/C(N)=N\[H])[C@@H]1O [Streptomycin, streptomycin]
[3]
  Level Required for Control: 60 ppm

## CS/C(C)=N\OC(=O)N(C)SN(C)C(=O)O/N=C(\C)SC [Thiodicarb 0.1%, Thiodicarb]
[4]
  Insecticide Efficacy: 32%

## c1cc[n+]2c(c1)-c1cccc[n+]1CC2 [diquat 2 qt/ac, diquat]
[5]
  Defol %: 96%
  Hour: 24 h

## O=P(O)(O)CCCl [eth 1#/ac, ethephon]
[6]
  Defol %: 72%

## C[n+]1ccc(-c2cc[n+](C)cc2)cc1 [paraquat 2 qt/ac, paraquat]
[5]
  Defol %: 98%
  Hour: 36 h
